Holding throughout (format): biochemical
In experiment [1] the target is T1, His_AnMurE (46T) (Nostoc sp. PCC 7120 = FACHB-418, UniProt Q8YWF0).
T1 construct: gene murE; N-terminal His tag (pPROEX); E. coli
T1 sequence (Q8YWF0 1-496): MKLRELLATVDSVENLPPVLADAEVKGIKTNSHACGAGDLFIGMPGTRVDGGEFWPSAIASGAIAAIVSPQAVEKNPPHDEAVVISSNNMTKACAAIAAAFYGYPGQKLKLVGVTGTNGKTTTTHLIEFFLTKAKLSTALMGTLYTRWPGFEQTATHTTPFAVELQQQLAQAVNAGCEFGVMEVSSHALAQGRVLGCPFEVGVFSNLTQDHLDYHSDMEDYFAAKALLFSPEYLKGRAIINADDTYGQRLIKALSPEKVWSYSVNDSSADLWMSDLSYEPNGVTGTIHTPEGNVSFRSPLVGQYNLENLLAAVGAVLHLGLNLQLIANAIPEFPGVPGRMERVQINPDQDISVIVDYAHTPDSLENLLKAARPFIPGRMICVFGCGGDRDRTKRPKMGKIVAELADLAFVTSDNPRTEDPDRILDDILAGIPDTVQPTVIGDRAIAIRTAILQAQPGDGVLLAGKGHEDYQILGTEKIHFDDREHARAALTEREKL
Put plainly: Amplex Red phosphate-release coupled assay. The following applies: 30 C, pH 7.6, 10 mM MgCl2, ATP, UDP-MurNAc-L-Ala-D-Glu.

Experiment [2] addresses T2, PpMurE-TP_Avi_His (1.1T) (Physcomitrium patens, UniProt Q3LHI5).
T2 construct: gene MurE; from Leu63; transit peptide removed; E. coli
Put plainly: Amplex Red phosphate-release coupled assay; NADH assay. The following applies: 30 C, pH 7.6, 10 mM MgCl2, ATP.

Experiment [3] concerns the target T3, Pseudomonas aeruginosa MurE (Pseudomonas aeruginosa, UniProt Q59650).
T3 construct: cloned into pET21; E. coli
T3 sequence (Q59650 1-487): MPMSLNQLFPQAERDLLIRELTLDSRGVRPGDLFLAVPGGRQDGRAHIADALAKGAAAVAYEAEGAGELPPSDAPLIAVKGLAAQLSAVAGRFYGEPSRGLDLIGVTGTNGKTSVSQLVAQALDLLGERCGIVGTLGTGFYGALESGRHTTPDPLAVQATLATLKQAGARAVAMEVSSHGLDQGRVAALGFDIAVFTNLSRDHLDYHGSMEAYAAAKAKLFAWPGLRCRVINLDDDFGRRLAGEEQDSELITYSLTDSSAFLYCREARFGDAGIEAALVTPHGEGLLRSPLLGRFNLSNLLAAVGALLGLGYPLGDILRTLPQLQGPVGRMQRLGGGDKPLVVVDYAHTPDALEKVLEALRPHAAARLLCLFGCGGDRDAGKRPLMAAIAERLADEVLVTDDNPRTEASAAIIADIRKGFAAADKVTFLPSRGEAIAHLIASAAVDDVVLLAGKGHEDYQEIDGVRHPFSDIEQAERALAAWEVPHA
The experiment is described as above. The following applies: 30 C, pH 7.6, 10 mM MgCl2, ATP.

The target of experiment [4] is T4, Streptococcus pneumoniae MurE (Streptococcus pneumoniae, UniProt Q8CWQ5).
T4 construct: cloned into pET21; E. coli
T4 sequence (Q8CWQ5 1-481): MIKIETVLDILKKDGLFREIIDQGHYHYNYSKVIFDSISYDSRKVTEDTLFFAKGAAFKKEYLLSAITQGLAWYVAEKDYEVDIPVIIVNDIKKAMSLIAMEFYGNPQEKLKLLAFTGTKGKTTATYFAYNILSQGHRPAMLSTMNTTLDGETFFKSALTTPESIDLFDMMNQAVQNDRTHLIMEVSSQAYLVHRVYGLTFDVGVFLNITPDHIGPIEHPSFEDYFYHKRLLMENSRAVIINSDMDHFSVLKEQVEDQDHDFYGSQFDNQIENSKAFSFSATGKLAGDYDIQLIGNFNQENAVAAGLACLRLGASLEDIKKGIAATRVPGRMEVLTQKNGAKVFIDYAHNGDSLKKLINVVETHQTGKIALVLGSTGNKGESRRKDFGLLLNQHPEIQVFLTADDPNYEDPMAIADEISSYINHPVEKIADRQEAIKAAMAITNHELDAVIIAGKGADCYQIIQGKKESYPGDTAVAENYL
The experiment in a line: Amplex Red phosphate-release coupled assay. The following applies: 30 C, pH 7.6, 10 mM MgCl2, ATP.

Experiment [5] deals with T1, His_AnMurE (46T). Put plainly: inhibition seen in Amplex Red coupled assay. The following applies: product inhibition; 30 C, pH 7.6.

T2 sequence (Q3LHI5 entry or part of it): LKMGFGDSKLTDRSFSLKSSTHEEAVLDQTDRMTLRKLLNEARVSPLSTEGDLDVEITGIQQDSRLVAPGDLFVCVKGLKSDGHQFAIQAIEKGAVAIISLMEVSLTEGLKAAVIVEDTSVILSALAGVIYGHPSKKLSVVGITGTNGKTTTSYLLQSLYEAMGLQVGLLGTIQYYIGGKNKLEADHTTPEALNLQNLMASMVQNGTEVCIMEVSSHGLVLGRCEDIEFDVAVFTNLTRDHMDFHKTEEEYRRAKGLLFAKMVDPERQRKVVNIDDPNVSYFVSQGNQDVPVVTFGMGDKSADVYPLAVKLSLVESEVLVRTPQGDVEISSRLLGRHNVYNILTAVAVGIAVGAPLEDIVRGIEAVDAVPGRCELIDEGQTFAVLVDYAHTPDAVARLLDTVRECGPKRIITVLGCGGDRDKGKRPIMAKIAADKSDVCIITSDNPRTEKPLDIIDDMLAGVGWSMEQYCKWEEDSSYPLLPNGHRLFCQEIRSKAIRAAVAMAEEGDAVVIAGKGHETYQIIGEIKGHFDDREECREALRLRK

As to `N[C@@H](CSC[C@H](N)C(=O)O)C(=O)O` (racemic) [D, L-lanthionine], in experiment [1], the “Amplex Red phosphate-release coupled assay” value was “D, L‐lanthionine was equally as efficiently incorporated as D, L‐DAP by Anabaena MurE”. `N[C@H](CCC[C@H](N)C(=O)O)C(=O)O` [D, L-diaminopimelate]: the “Amplex Red phosphate-release coupled assay; NADH assay” value was “predominant substrate for both the moss, PpMurE, and cyanobacterial, AnMurE, ligases” in experiment [2] (UDP-MurNAc-L-Ala-D-Glu); “an order of magnitude less active than Pseudomonas aeruginosa MurE” in experiment [3] (UDP-MurNAc-L-Ala-D-Glu). Besides, the “Amplex Red phosphate-release coupled assay” value in experiment [1] is recorded as “D, L‐lanthionine was equally as efficiently incorporated as D, L‐DAP by Anabaena MurE”. `NCCCC[C@H](N)C(=O)O` [L-lysine]: in experiment [4] (UDP-MurNAc-L-Ala-D-Glu), the “Amplex Red phosphate-release coupled assay” value was “able to utilize both L‐hydroxylysine and L‐lysine as substrates”.

Turning to `Nc1ncnc2c1ncn2[C@@H]1O[C@H](COP(=O)(O)OP(=O)(O)O)[C@@H](O)[C@H]1O` [ADP], the “inhibition seen in Amplex Red coupled assay” value in experiment [5] is reported as “an observed inhibitory effect of ADP on AnMurE in the Amplex Red assay”. For the compound `CC(=O)N[C@H]1[C@@H](OP(=O)(O)OP(=O)(O)OC[C@H]2O[C@@H](n3ccc(=O)[nH]c3=O)[C@H](O)[C@@H]2O)O[C@H](CO)[C@@H](O)[C@@H]1O[C@H](C)C(=O)N[C@@H](C)C(=O)N[C@H](CCC(=O)O)C(=O)O` [UDP-N-acetylmuramoyl-L-alanyl-D-glutamate], the “Amplex Red phosphate-release coupled assay” value in experiment [4] (L-lysine) is on record as “L‐lysine as substrates with UDP‐N‐acetylmuramoyl‐L‐alanyl‐D‐glutamate as the acceptor”. Also, the “Amplex Red phosphate-release coupled assay; NADH assay” value is “UDP‐N‐acetylmuramoyl‐L‐alanyl‐D‐glutamate as the recipient molecule” in experiment [2] (D,L-DAP); “D, L‐DAP) and UDP‐N‐acetylmuramoyl‐ L‐alanyl‐D‐glutamate as substrates” in experiment [3] (D,L-DAP).

The values above are taken from article PMC12681378, “Transcriptomic and enzymological evidence for plastid peptidoglycan synthesis in the gymnosperm Picea abies” (The Plant Journal, 2025).
